Measurements from patent US20250074869A1, “AMINO-COMBRETASTATIN DERIVATIVE AND USE THEREOF” (priority 2020, published 2025).
Structures can show the parent of a compound that is named as a salt.

What was measured:
[1] = tested on: non-small cell lung cancer cells A549; assay: Efficacy study in nude mouse with xenograft tumor, A549; assay type: in vivo, human; settings: BALB/cA-nude mice, subcutaneous xenograft, 50 mg/kg intragastric once daily for 21 days, dosed as hydrochloride; for inhibition in vivo at 50 mg/kg: Mus musculus, A549, sc, 504 h, read-out: % tumor inhibition (D21) A549
Experimental: (§1) BALB/cA-nude mice aged 6 to 7 weeks were purchased from Shanghai Slac Laboratory Animal Co., Ltd. The nude mice were subcutaneously grafted with human liver cancer cells Bel-7402, colon cancer cells HT-29, gastric cancer cells SGC-7901 or non-small cell lung cancer cells A549. After the tumor grew to 100 to 250 mm^3, the animals were randomized (d0). The tumor volumes and body weights were measured twice or thrice a week, and the data were recorded. Tumor volume (V) was calculated as follows:
(§2) [formula] • wherein a and b represent length and width, respectively; T and C are the tumor volumes at the end of study; T0 and C0 are the tumor volumes at the start of study.
(§3) All samples were diluted to the desired concentration with 50% PEG400 in distilled water. The regimen was once daily for 21 days at 50 mg/kg mouse body weight through intragastric administration, and 50 mg/kg for the control. The compounds obtained in Examples 1, 3, 4, 5, 6, 7, 8, 9, 10, 11, 12, 13 and 14 and the control were prepared into corresponding hydrochloride as the dosing compounds according to the method disclosed in Example 2 to investigate their efficacy on human liver cancer cell Bel-7402, colon cancer cell HT-29, gastric cancer cell SGC-7901 or non-small cell lung cancer cell A549 xenograft tumors in nude mice and to compare the compounds with the control (prepared as in Example 16).

[2] = tested on: colon cancer cells HT-29; assay: Efficacy study in nude mouse with xenograft tumor, HT-29; assay type: in vivo, human; settings: BALB/cA-nude mice, subcutaneous xenograft, 50 mg/kg intragastric once daily for 21 days, dosed as hydrochloride; for inhibition in vivo at 50 mg/kg: Mus musculus, HT-29, sc, 504 h, read-out: % tumor inhibition (D21) HT-29
Experimental: as §1, §2, §3

[3] = tested on: gastric cancer cells SGC-7901; assay: Efficacy study in nude mouse with xenograft tumor, SGC-7901; assay type: in vivo, human; settings: BALB/cA-nude mice, subcutaneous xenograft, 50 mg/kg intragastric once daily for 21 days, dosed as hydrochloride; for inhibition in vivo at 50 mg/kg: Mus musculus, SGC-7901, sc, 504 h, read-out: % tumor inhibition (D21) SGC-7901
Experimental: as §1, §2, §3

[4] = tested on: human liver cancer cells Bel-7402; assay: Efficacy study in nude mouse with xenograft tumor, Bel-7402; assay type: in vivo; settings: BALB/cA-nude mice, subcutaneous xenograft, 50 mg/kg intragastric once daily for 21 days, dosed as hydrochloride; for inhibition in vivo at 50 mg/kg: Mus musculus, Bel-7402, sc, 504 h, read-out: % tumor inhibition (D21) Bel-7402
Experimental: as §1, §2, §3

[5] = Acute toxicity study in animals (oral LD50); settings: mouse, in vivo, male ICR mice, intragastric administration, observed 14 days, hydrochloride salts
Text: Male ICR mice weighed 23±2 g, clean grade, were selected. The route of administration was intragastric (ig) administration, which is consistent with the intended oral route for clinical use.
Mice were randomly divided into 8 groups by weight: the blank control group, Example 1 group, Example 5 group, Example 11 group, Example 12 group, Example 13 group, Example 14 group and control group. Among these, the control group received amino-combretastatin serinamide hydrochloride as the control (hereinafter referred to as control).
Preparation of the compounds used in the example groups: The compounds obtained in Example 1, Example 3. Example 4. Example 5. Example 6. Example 7. Example 8. Example 9. Example 10. Example 11. Example 12, Example 13 and Example 14 were prepared into hydrochloride salts according to the method disclosed in Example 2.
Pre-treatment: […] were deprived of food but not water for 12 h before the study. and randomized into groups of 10 by body weight. The treatment groups were intragastrically administered once at 0.25 mL/10 g body weight, and the water control group received an equivalent amount of distilled water through intragastric administration. The LD100 value (the amount for 100% death), LD0 (the amount for 0 death) and the corresponding range r value between the dose groups were calculated, and LD50 was determined.
Study procedures: 160 mice were randomized into 8 groups of 20 mice by body weight. After deprivation of food but not water for 12 h before the study, each group was intragastrically given the compound once at 0.3 mL/10 g body weight. Since no death was observed after 12 h, the second dose was given. The control group received equivalent volumes of water. The daily dose of each group was calculated; the control group received equal volumes of water and was subjected to an acute toxicity study for observation and the body weight of the mice was recorded daily for 14 days.

SMILES | inhibition in vivo at 50 mg/kg [1] | inhibition in vivo at 50 mg/kg [2] | inhibition in vivo at 50 mg/kg [3] | inhibition in vivo at 50 mg/kg [4] | LD50 at 14 days [5] | other results
CCCCN(CCCC)CCC(=O)Nc1cc(/C=C\c2cc(OC)c(OC)c(OC)c2)ccc1OC [Example 6, (Z)-1-(3,4,5-trimethoxyphenyl)-2-((3-(bis(2-n-butyl)amino)propionamide)-4-methoxyphenyl)ethylene] | 62% | 90% | 81% | 89% | – | –
CCCN(CCC)CCC(=O)Nc1cc(/C=C\c2cc(OC)c(OC)c(OC)c2)ccc1OCC(F)(F)F [Example 7, (Z)-1-(3,4,5-trimethoxyphenyl)-2-((3-(bis(2-n-propyl)amino)propionamide)-4-trifluoroethoxyphenyl) ethylene] | 66% | 79% | 65% | 81% | – | –
CCCN(CCC)CCC(=O)Nc1cc(/C=C\c2cc(OC)c(OC)c(OC)c2)ccc1OC [Example 3, (Z)-1-(3,4,5-trimethoxyphenyl)-2-((3-(bis(2-n-propyl)amino)propionamide)-4-methoxyphenyl)ethylene] | 65% | 88% | 78% | 89% | – | –
CCOc1ccc(/C=C\c2cc(OC)c(OC)c(OC)c2)cc1NC(=O)CCNCC(F)F [Example 13, (Z)-1-(3,4,5-trimethoxyphenyl)-2-((3-(2,2-difluoroethylamino)propionamide)-4-ethoxyphenyl)ethylene] | 63% | 77% | 72% | 82% | – | –
CCOc1ccc(/C=C\c2cc(OC)c(OC)c(OC)c2)cc1NC(=O)CCN(CCO)CCO [Hydrochloride of Example 11] | – | – | – | – | 1100 mg/kg | –
CCCN(CCC)CCC(=O)Nc1cc(/C=C\c2cc(OC)c(OC)c(OC)c2)ccc1OCC [Hydrochloride of Example 1, (Z)-1-(3,4,5-trimethoxyphenyl)-2-((3-(bis(2-n-propyl)amino)propionamide)-4-ethoxyphenyl)ethylene hydrochloride] | – | – | – | – | 1200 mg/kg | –
CCOc1ccc(/C=C\c2cc(OC)c(OC)c(OC)c2)cc1NC(=O)CCN(CC)CC [Example 4, (Z)-1-(3,4,5-trimethoxyphenyl)-2-((3-(bis(2-ethyl)amino)propionamide)-4-ethoxyphenyl)ethylene] | 67% | 91% | 76% | 90% | – | –
COc1ccc(/C=C\c2cc(OC)c(OC)c(OC)c2)cc1NC(=O)CCN(CCO)CCO [Example 12, (Z)-1-(3,4,5-trimethoxyphenyl)-2-((3-(bis(2-hydroxyethyl)amino)propionamide)-4-methoxyphenyl)ethylene] | 58% | 79% | 77% | 79% | – | –
CCCCN(CCCC)CCC(=O)Nc1cc(/C=C\c2cc(OC)c(OC)c(OC)c2)ccc1OCC [Hydrochloride of Example 5] | – | – | – | – | 1200 mg/kg | –
CCCN(CCC)CCC(=O)Nc1cc(/C=C\c2cc(OC)c(OC)c(OC)c2)ccc1OCC [Example 1] | 69% | 93% | 82% | 92% | – | –
CCOc1ccc(/C=C\c2cc(OC)c(OC)c(OC)c2)cc1NC(=O)CCNCC(OC)OC [Example 14, (Z)-1-(3,4,5-trimethoxyphenyl)-2-((3-(2,2-dimethoxyethylamino)propionamide)-4-ethoxyphenyl)ethylene] | 66% | 71% | 80% | 82% | – | –
CCCN(CCC)CCC(=O)Nc1cc(/C=C\c2cc(OC)c(OC)c(OC)c2)ccc1OC(F)F [Example 8, (Z)-1-(3,4,5-trimethoxyphenyl)-2-((3-(bis(2-n-propyl)amino)propionamide)-4-difluoromethoxyphenyl)ethylene] | 67% | 88% | 71% | 90% | – | –
CCCN(CCC)CCC(=O)Nc1cc(/C=C\c2cc(OC)c(OC)c(OC)c2)ccc1OC(F)F [Hydrochloride of Example 8] | – | – | – | – | 1100 mg/kg | –
CCCCN(CCCC)CCC(=O)Nc1cc(/C=C\c2cc(OC)c(OC)c(OC)c2)ccc1OCC(F)(F)F [Example 9, (Z)-1-(3,4,5-trimethoxyphenyl)-2-((3-(bis(2-n-butyl)amino)propionamide)-4-trifluoroethoxyphenyl)ethylene] | 61% | 85% | 80% | 79% | – | –
CCCCN(CCCC)CCC(=O)Nc1cc(/C=C\c2cc(OC)c(OC)c(OC)c2)ccc1OCC(F)(F)F [Hydrochloride of Example 9] | – | – | – | – | 1000 mg/kg | –
CCOc1ccc(/C=C\c2cc(OC)c(OC)c(OC)c2)cc1NC(=O)CCN(CCO)CCO [Example 11, (Z)-1-(3,4,5-trimethoxyphenyl)-2-((3-(bis(2-hydroxyethyl)amino)propionamide)-4-ethoxyphenyl)ethylene] | 63% | 89% | 65% | 88% | – | –
CCC(C)N(CCC(=O)Nc1cc(/C=C\c2cc(OC)c(OC)c(OC)c2)ccc1OC(F)F)C(C)CC (stereo not shown) [Example 10, (Z)-1-(3,4,5-trimethoxyphenyl)-2-((3-(bis(2-n-butyl)amino)propionamide)-4-difluoromethoxyphenyl)ethylene] | – | – | – | – | – | % tumor inhibition (D21) A549 [1]: 60%; % tumor inhibition (D21) HT-29 [2]: 81%; % tumor inhibition (D21) SGC-7901 [3]: 73%; % tumor inhibition (D21) Bel-7402 [4]: 86%
CCCCN(CCCC)CCC(=O)Nc1cc(/C=C\c2cc(OC)c(OC)c(OC)c2)ccc1OC [Hydrochloride of Example 6] | – | – | – | – | – | LD50 [5]: 900 mg/kg
CCCN(CCC)CCC(=O)Nc1cc(/C=C\c2cc(OC)c(OC)c(OC)c2)ccc1OC [Hydrochloride of Example 3] | – | – | – | – | 1000 mg/kg | –
CCOc1ccc(/C=C\c2cc(OC)c(OC)c(OC)c2)cc1NC(=O)CCNCC(F)F [Hydrochloride of Example 13] | – | – | – | – | – | LD50 [5]: 1000 mg/kg
COc1ccc(/C=C\c2cc(OC)c(OC)c(OC)c2)cc1NC(=O)CCN(CCO)CCO [Hydrochloride of Example 12] | – | – | – | – | – | LD50 [5]: 1100 mg/kg
CCCCN(CCCC)CCC(=O)Nc1cc(/C=C\c2cc(OC)c(OC)c(OC)c2)ccc1OCC [Example 5, (Z)-1-(3,4,5-trimethoxyphenyl)-2-((3-(bis(2-n-butyl)amino)propionamide)-4-ethoxyphenyl)ethylene] | 63% | 82% | 80% | 88% | – | –
CCOc1ccc(/C=C\c2cc(OC)c(OC)c(OC)c2)cc1NC(=O)CCNCC(OC)OC [Hydrochloride of Example 14] | – | – | – | – | 1000 mg/kg | –
CCOc1ccc(/C=C\c2cc(OC)c(OC)c(OC)c2)cc1NC(=O)CCN(CC)CC [Hydrochloride of Example 4] | – | – | – | – | 1100 mg/kg | –
CCCN(CCC)CCC(=O)Nc1cc(/C=C\c2cc(OC)c(OC)c(OC)c2)ccc1OCC(F)(F)F [Hydrochloride of Example 7] | – | – | – | – | 1200 mg/kg | –
